Tests used:
[1] = molecular target: T1, Ephrin type-A receptor 1 (Homo sapiens) (UniProt P21709); experiment: Residual activity of EPHA1 at 1 uM by microplate scintillation counting
T1 sequence (whole entry): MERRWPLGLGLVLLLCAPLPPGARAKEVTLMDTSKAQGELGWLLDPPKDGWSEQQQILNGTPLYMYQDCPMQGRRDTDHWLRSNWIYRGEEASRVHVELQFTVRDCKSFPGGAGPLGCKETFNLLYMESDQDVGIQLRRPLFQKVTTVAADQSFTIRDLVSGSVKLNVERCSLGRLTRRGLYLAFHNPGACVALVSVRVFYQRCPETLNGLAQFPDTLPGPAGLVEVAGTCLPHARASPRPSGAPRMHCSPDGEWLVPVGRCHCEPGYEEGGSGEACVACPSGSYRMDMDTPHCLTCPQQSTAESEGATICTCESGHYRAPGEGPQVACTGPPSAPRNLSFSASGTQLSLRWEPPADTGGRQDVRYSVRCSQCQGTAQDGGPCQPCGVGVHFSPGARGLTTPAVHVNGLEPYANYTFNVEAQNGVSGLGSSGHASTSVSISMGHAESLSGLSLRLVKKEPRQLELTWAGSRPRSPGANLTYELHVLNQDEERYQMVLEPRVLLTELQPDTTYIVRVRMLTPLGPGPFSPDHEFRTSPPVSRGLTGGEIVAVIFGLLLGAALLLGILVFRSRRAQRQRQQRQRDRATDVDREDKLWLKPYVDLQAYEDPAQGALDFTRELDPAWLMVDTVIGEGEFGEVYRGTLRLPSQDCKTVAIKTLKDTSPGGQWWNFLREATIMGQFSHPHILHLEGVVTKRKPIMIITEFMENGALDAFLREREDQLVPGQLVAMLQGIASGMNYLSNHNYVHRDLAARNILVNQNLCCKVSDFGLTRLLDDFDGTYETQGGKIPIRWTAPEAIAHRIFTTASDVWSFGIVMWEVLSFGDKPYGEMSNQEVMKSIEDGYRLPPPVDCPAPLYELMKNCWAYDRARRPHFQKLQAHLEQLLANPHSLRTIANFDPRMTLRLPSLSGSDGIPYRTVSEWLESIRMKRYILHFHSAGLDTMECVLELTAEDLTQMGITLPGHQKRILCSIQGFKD

[2] = molecular target: Fibroblast growth factor receptor 4 (Homo sapiens) (UniProt P22455); experiment: Residual activity of FGFR4 at 1 uM by microplate scintillation counting
[3] = molecular target: Platelet-derived growth factor receptor alpha (Homo sapiens) (UniProt P16234); experiment: Residual activity of PDGFRalpha at 1 uM by microplate scintillation counting
Aurora kinase B = Aurora kinase B (Homo sapiens, UniProt Q96GD4); experiment: Residual activity of Aurora-B at 1 uM by microplate scintillation counting
[4] = molecular target: CDK3/cyclin E (Homo sapiens) (UniProt P24864+O96020+Q00526); experiment: Residual activity of CDK3/Cyclin E at 10 uM by microplate scintillation counting; assay type: protein-complex assay
[5] = molecular target: T1, Ephrin type-A receptor 1 (Homo sapiens); experiment: Residual activity of EPHA1 at 0.1 uM by microplate scintillation counting
[6] = molecular target: PAS domain-containing serine/threonine-protein kinase (Homo sapiens) (UniProt Q96RG2); experiment: Residual activity of PASK at 10 uM by microplate scintillation counting
[7] = molecular target: Protein kinase C gamma type (Homo sapiens) (UniProt P05129); experiment: Residual activity of PKCgamma at 10 uM by microplate scintillation counting
[8] = molecular target: T2, Activin receptor type-1B (Homo sapiens) (UniProt P36896); experiment: Residual activity of ACVR1B at 0.1 uM by microplate scintillation counting
T2 sequence (whole entry): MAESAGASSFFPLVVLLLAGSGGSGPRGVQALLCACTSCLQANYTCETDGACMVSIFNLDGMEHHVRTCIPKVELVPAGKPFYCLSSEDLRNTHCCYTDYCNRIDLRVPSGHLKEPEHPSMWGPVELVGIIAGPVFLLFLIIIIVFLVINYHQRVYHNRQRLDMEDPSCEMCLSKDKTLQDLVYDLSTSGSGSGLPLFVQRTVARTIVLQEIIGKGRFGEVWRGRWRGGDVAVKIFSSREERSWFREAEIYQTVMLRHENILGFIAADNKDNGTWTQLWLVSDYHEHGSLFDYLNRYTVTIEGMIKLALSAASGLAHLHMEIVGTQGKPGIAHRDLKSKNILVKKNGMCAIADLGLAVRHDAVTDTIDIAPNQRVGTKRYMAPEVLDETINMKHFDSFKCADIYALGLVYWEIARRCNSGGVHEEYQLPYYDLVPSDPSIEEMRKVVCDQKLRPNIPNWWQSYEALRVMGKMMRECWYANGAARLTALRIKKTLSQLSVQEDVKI

[9] = molecular target: T3, Aurora kinase A (Homo sapiens) (UniProt O14965); experiment: Residual activity of Aurora-A at 0.1 uM by microplate scintillation counting
T3 sequence (whole entry): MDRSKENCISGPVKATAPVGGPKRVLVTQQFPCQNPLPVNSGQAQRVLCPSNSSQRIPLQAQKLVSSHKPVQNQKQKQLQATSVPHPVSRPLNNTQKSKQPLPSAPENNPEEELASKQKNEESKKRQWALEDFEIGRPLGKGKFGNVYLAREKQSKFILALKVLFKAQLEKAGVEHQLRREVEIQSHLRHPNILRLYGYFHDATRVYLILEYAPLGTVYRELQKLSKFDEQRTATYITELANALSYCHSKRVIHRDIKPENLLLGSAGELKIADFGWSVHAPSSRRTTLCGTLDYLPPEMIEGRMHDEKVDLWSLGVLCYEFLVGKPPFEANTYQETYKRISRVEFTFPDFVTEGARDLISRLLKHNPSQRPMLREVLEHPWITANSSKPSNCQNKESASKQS

[10] = molecular target: Protein kinase C eta type (Homo sapiens) (UniProt P24723); experiment: Residual activity of PKCeta at 0.1 uM by microplate scintillation counting
[11] = molecular target: Ribosomal protein S6 kinase beta-2 (Homo sapiens) (UniProt Q9UBS0); experiment: Residual activity of S6Kbeta at 10 uM by microplate scintillation counting
[12] = molecular target: Vascular endothelial growth factor receptor 2 (Homo sapiens, UniProt P35968); experiment: Residual activity of VEGFR2 at 10 uM by microplate scintillation counting
Vascular endothelial growth factor receptor 2, sequence (P35968 whole entry): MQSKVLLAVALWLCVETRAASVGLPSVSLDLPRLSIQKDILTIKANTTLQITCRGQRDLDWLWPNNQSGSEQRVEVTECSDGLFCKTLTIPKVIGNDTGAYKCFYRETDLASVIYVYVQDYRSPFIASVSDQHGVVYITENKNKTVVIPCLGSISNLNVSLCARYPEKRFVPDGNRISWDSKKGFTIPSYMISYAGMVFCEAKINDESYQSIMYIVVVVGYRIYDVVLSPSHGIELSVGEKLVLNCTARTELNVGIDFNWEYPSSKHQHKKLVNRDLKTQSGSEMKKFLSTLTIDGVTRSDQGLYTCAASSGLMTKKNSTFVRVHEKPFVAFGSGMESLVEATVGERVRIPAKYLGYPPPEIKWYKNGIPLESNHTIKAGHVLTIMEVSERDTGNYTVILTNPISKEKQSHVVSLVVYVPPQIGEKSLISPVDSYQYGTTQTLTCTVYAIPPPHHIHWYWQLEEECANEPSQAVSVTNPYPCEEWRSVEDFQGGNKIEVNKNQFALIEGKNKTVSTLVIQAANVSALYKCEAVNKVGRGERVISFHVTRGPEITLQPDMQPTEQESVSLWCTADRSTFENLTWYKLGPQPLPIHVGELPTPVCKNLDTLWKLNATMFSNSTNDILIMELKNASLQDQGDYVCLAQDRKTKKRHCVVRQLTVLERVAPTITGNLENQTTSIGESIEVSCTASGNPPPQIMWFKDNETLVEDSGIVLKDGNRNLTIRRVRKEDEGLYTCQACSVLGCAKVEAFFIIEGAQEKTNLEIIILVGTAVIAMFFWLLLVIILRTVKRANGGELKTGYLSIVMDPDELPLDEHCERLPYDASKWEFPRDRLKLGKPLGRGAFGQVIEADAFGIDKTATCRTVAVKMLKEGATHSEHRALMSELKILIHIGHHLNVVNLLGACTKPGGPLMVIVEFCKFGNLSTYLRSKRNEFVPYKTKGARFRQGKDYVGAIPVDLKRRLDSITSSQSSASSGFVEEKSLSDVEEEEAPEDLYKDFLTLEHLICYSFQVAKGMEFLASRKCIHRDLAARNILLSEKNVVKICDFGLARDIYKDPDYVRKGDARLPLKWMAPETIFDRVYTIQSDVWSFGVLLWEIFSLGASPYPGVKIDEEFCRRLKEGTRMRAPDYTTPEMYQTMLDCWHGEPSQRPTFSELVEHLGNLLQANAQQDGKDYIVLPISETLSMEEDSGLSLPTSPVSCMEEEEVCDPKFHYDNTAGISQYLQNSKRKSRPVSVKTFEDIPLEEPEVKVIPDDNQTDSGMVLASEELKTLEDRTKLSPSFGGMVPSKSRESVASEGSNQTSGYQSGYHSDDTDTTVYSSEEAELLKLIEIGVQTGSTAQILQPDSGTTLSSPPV

Protein kinase C eta type (Homo sapiens), sequence (P24723 whole entry): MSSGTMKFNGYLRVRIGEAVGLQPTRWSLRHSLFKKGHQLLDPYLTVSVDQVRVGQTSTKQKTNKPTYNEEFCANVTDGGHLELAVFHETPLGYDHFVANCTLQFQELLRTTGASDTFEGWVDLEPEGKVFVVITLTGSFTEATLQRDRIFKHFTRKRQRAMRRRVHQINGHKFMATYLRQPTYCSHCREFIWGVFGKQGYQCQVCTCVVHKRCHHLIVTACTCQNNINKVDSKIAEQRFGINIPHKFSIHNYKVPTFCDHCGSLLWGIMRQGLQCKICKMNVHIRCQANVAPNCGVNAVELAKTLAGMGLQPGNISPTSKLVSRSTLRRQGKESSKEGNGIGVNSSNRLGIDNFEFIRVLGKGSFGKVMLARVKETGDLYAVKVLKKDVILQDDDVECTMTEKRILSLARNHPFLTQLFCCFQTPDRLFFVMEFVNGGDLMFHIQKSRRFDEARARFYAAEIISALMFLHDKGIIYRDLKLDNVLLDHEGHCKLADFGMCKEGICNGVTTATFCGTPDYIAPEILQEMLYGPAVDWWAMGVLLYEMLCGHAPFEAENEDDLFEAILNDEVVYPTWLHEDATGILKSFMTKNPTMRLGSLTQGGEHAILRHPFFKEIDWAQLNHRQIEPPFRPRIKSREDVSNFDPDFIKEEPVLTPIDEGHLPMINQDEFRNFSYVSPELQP
Platelet-derived growth factor receptor alpha (Homo sapiens), sequence (P16234 whole entry): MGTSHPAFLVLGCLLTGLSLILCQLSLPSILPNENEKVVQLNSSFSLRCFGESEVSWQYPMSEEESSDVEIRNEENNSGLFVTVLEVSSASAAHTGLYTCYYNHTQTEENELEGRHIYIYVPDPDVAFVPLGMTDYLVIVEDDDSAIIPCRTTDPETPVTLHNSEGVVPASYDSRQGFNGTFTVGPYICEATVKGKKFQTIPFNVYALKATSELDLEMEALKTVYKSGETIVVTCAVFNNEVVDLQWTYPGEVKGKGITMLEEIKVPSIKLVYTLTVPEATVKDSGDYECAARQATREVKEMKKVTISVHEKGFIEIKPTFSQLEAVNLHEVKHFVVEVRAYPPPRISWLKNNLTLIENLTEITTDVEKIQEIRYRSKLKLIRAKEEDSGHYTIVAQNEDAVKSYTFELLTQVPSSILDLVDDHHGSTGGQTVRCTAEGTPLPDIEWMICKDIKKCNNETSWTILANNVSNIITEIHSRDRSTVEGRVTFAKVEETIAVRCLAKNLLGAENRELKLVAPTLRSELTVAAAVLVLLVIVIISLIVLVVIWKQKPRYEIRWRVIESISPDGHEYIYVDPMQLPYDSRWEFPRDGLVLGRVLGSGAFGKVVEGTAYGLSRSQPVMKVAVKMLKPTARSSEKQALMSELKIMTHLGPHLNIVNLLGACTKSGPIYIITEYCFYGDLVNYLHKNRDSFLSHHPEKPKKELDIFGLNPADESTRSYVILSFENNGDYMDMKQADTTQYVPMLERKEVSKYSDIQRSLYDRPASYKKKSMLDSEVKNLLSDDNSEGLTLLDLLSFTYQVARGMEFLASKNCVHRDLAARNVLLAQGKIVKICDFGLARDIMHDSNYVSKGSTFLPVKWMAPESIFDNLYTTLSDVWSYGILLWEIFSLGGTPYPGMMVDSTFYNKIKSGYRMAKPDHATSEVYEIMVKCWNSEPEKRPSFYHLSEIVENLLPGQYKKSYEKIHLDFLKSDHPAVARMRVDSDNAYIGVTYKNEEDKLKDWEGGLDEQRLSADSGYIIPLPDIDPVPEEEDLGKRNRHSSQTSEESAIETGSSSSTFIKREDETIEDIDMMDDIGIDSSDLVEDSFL
Fibroblast growth factor receptor 4 (Homo sapiens), sequence (P22455 22-802 limits assumed): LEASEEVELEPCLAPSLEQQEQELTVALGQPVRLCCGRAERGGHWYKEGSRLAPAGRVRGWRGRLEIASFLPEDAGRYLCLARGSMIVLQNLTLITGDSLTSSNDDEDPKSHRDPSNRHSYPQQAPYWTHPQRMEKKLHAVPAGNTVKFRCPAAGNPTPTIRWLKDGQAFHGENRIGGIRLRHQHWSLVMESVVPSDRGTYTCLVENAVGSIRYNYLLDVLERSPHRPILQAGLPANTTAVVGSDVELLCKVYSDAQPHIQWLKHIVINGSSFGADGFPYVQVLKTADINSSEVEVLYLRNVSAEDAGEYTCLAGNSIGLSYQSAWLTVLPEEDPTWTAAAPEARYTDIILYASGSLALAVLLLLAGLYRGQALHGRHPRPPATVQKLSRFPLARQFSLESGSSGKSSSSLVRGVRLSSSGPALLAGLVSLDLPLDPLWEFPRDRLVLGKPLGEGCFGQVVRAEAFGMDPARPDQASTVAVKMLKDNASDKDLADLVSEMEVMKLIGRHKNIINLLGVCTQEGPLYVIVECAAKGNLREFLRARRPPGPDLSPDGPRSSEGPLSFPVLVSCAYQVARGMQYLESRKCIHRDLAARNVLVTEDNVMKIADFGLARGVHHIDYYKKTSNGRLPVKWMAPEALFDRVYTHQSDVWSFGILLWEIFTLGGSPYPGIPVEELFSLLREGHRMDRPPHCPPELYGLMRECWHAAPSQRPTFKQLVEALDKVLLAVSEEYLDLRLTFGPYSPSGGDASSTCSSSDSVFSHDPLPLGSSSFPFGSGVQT
Aurora kinase B, sequence (Q96GD4 whole entry): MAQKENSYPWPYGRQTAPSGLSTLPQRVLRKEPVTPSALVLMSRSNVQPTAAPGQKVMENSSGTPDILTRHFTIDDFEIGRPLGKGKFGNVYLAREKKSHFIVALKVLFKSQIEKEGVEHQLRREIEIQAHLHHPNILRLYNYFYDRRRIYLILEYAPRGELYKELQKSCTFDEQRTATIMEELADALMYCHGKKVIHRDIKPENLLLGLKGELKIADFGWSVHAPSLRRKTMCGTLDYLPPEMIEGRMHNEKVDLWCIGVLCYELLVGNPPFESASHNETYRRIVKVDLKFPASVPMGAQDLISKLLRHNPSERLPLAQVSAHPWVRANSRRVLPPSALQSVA

SMILES | residual activity [1] | residual activity [2] | residual activity [3] | residual activity (Aurora kinase B) | residual activity [4] | residual activity [5] | residual activity [6] | residual activity [7] | residual activity [8] | residual activity [9] | residual activity [10] | residual activity [11] | residual activity [12]
COc1cc2c(Oc3ccc(-c4nc5ccccc5s4)cc3F)ncnc2cc1OCCCN1CCN(C)CC1 | 145% | 130% | 73% | 20% | 119% | 106% | 79% | 58% | 97% | 65% | 104% | 77% | 5%
COc1cc2c(Oc3ccc(-c4nc5ccccc5s4)cc3)ncnc2cc1OCCCN1CCCC1 | 147% | 137% | 59% | 24% | 113% | 102% | 83% | 33% | 100% | 68% | 117% | 85% | 5%
COc1cc2c(Oc3ccc(-c4nc5ccccc5s4)cc3)ncnc2cc1OCCCN1CCN(C)CC1 | 140% | 121% | 57% | 18% | 130% | 112% | 96% | 80% | 102% | 52% | 97% | 75% | 6%
